Measurements as given in ChEMBL document CHEMBL1671801, “Melampomagnolide B: a new antileukemic sesquiterpene” (Bioorg Med Chem, 2011).
Calls of active or inactive are those of the source.

Columns and labels:
AML [1] = test: Cytotoxicity against human AML cells at 20 to 30 uM after 24 hrs using Annexin-V and 7-AAD staining by flow cytometry; format: functional, cell-based
AML [2] = test: Inhibition of NF-kappaB activity in human AML cells assessed as phosphorylation of NF-kappaB p65 subunit at Ser-536 at 15 uM by immunoblotting; format: cell-based
AML [3] = test: Binding affinity to NF-kappaB p65 activity in human AML cells after 4 hrs streptavidin beads pull-down assay; format: cell-based
[4] = target: T1, Inhibitor of nuclear factor kappa-B kinase subunit beta (Homo sapiens) (UniProt O14920); test: Binding affinity to IKK-beta activity in human AML cells after 4 hrs streptavidin beads pull-down assay; format: cell-based
T1 sequence (whole entry): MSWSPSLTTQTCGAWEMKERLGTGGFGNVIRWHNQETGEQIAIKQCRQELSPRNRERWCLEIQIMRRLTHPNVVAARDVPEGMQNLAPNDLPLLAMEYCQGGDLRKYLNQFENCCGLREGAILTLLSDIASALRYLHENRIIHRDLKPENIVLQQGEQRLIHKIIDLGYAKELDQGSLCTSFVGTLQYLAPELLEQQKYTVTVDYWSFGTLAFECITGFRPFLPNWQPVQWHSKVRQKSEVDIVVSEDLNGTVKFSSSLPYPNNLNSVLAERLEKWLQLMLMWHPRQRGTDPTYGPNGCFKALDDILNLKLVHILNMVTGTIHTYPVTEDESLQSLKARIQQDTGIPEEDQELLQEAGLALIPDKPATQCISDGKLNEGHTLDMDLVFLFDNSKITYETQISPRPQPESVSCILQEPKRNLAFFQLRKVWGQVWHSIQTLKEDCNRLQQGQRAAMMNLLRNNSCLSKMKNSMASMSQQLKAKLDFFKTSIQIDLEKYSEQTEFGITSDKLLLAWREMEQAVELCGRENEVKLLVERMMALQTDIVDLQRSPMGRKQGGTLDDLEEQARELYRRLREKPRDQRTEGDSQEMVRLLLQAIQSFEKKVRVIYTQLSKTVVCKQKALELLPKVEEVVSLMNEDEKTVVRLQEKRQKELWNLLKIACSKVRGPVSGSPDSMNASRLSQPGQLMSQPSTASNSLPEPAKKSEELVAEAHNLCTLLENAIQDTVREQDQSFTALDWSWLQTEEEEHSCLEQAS

AML [5] = test: Cytotoxicity against human AML cells at 7.5 uM after 24 hrs using Annexin-V and 7-AAD staining by flow cytometry; format: functional, cell-based
AML [6] = test: Inhibition of NF-kappaB activity in human AML cells assessed as phosphorylation of NF-kappaB p65 subunit at Ser-536 at 7.5 uM by immunoblotting; format: cell-based

Measured: Activity

C=C1C(=O)O[C@@H]2[C@H]3O[C@]3(C)CC/C=C(\COC(=O)CCCCCCCCCCCNC(=O)CCCC[C@@H]3SC[C@@H]4NC(=O)N[C@@H]43)CC[C@@H]12
active: AML [1] | AML [2] | AML [3] | [4]

C=C1C(=O)O[C@@H]2[C@H]3O[C@]3(C)CC/C=C(\CO)CC[C@@H]12
active: AML [5] | AML [6]
